# Measurements: EP0311322B1, “Pyridine or pyridazine derivatives as cardio-protective agents and for the treatment of ischemic disease, and process for their preparation” (FUJISAWA PHARMACEUTICAL CO., LTD., priority 1987, dated 1989)
# How the values were obtained:
# [1] = test system: heart isolated from male guinea-pig; assay: Test 1: isolated guinea-pig heart perfused in the Langendorff mode, global ischemia (35 min) and reperfusion (40 min); details: for % change from control Cardiac depression (pre-ischemia) LVSP x HR: 15 min before ischemia; for % change from control recovery of ATP content (% increase): after 35 min ischemia and 40 min reperfusion
# Experimental: The heart was isolated from male guinea-pig weighing 550-650 g and was perfused in the Langendorff mode at 37°C at a constant perfusion pressure of 80 cm H₂O. The perfusion medium was Krebs-Henseleit bicarbonate solution containing 11 mM glucose. The solution was equilibrated with 95% O₂ and 5% CO₂ gas mixture at pH 7.4. A latex balloon was placed in the left ventricular cavity and then left ventricular systolic (LVSP) and diastolic (LVDP) pressure were measured. Heart rate (HR) was triggered by the pulse pressure. Coronary flow was monitored with electromagnetic flow probe placed on the aorta.
# The heart was perfused for 45 min. with the perfusion medium and then for 15 min. with the perfusion medium containing the test compound. The heart was then subjected to the global ischemia by stopping the perfusion. After 35 min. of ischemia, the heart was reperfused by the perfusion medium containing no test compound. At the end of 40 min. reperfusion, the cardiac function was monitored. The heart was immidiately frozen for the estimation of ATP content.
# Male SD rats [2] = assay: Test 2: left coronary artery occlusion (5 min) and reperfusion (10 min) in anesthetized rats, incidence of VT, VF and mortality; assay type: in vivo; details: 10 min before occlusion
# Experimental: Male SD rats weighing 270-340 g were anesthetized with sodium pentobarbital. The chest was opened, and then a thread was placed around the left coronary artery near the origin. Both ends of the thread were passed through a small plastic tube. After standing for 5 minutes, test compound was administered intravenously. After 10 minutes, the left coronary artery was occluded for 5 minutes by pulling the thread and pressing the plastic tube to the artery and then reperfusion was achieved by releasing the occlusion for 10 minutes. Electrocardiograms were recorded and analyzed for checking inhibitory rate of incidence of ventricular tachycardia (VT) and ventricular fibrillation (VF) in comparison with control group, and inhibitory rate of mortality as compared with control group was also calculated. 11-18 rats were used for each test group.
# Male SD rats [3] = assay: Test 3: myocardial infarction induced by DL-isoproterenol hydrochloride in rats, mortality and myocardial ATP content; assay type: in vivo; details: dose 1.0 mg/kg intraperitoneally, DL-isoproterenol hydrochloride 120 mg/kg subcutaneously
# Experimental: Ten male SD rats weighing 140-170 g were used for each group. Test compound was administered intraperitoneally, and then myocardial infarction was induced by administering DL-isoproterenol hydrochloride (120 mg/kg) subcutaneously. After 24 hours, mortality was examined. Survival rats were anesthetized and their hearts were taken out and frozen immediately for the measurement of myocardial ATP content.
# male ddY mice = assay: Test 4: foot edema after occlusion of the right leg with a rubber band and release in mice; assay type: in vivo; details: 20 min occlusion, 20 min after cutting the band
# Experimental: Five male ddY mice weighing 27-32 g were used for each group. After test compound was administered intravenously, the right leg was occluded by binding 10 times a rubber band (diameter : 42 mm) round it. After 20 minutes later, the rubber band was cut and thickness of foot pad was measured by a dial gage immediately and 20 minutes after cutting the band. The difference of these two values was regarded as edema.
# [4] = concentration 1 x 10⁻⁵ g/ml in perfusion medium
Compound,% change from control coronary flow ([1]; concentration 1 x 10⁻⁵ g/ml) [%],"% change from control Cardiac depression (pre-ischemia) LVSP x HR [1, 4] [%]",% change from control recovery of ATP content (% increase) ([1]; concentration 1 x 10⁻⁵ g/ml) [%],Inhibition (%) of foot edema (male ddY mice; dose 1.0 mg/kg intravenously) [%],also measured
"CN1CCN(Cc2nnc(-c3ccccc3)cc2-c2cccc([N+](=O)[O-])c2)CC1 [(b), 3-(4-Methylpiperazin-1-ylmethyl)-4-(3-nitrophenyl)-6-phenylpyridazine]",-30.6,-95.8,100.4,–,–
"Cc1cc(-c2ccccc2)nc(-c2cccc([N+](=O)[O-])c2)c1C(=O)NCCN1CCOCC1 [(c), 4-Methyl-3-(2-morpholinoethylcarbamoyl)-2-(3-nitrophenyl)-6-phenylpyridine]",31.9,-38.9,71.3,–,–
"Cc1nc(-c2ccccc2)cc(-c2cccc([N+](=O)[O-])c2)c1C(=O)NCCN1CCOCC1 [(a), 3-(2-Morpholinoethylcarbamoyl)-2-methyl-4-(3-nitrophenyl)-6-phenylpyridine]",32.0,-1.7,89.5,30,"Inhibition (%) of incidence as compared with control group Mortality (Male SD rats [2]; dose 1.0 mg/kg intravenously): 13.5%; Inhibition (%) of incidence as compared with control group VF (Male SD rats [2]; dose 1.0 mg/kg intravenously): 28.0%; Inhibition (%) of incidence as compared with control group VT (Male SD rats [2]; dose 1.0 mg/kg intravenously): 0%; Inhibition (%) of incidence as compared with control group Mortality (Male SD rats [2]; dose 3.2 mg/kg intravenously): 52.5%; Inhibition (%) of incidence as compared with control group VF (Male SD rats [2]; dose 3.2 mg/kg intravenously): 60.4%; Inhibition (%) of incidence as compared with control group VT (Male SD rats [2]; dose 3.2 mg/kg intravenously): 0%; Inhibition (%) of incidence as compared with control group Mortality (Male SD rats [2]; dose 10 mg/kg intravenously): 78.9%; Inhibition (%) of incidence as compared with control group VF (Male SD rats [2]; dose 10 mg/kg intravenously): 82.4%; Inhibition (%) of incidence as compared with control group VT (Male SD rats [2]; dose 10 mg/kg intravenously): 5.6%; Inhibition (%) of mortality (Male SD rats [3]; after 24 hours, % change as compared with mortality rate in control group): 75%; Recovery (%) of ATP content (Male SD rats [3]; myocardial ATP of surviving rats after 24 hours): 67%; % change from control coronary flow ([1]; concentration 1 x 10⁻⁶ g/ml): -1.6%; % change from control Cardiac depression (pre-ischemia) LVSP x HR ([1]; concentration 1 x 10⁻⁶ g/ml in perfusion medium): 4.1%; % change from control recovery of ATP content (% increase) ([1]; concentration 1 x 10⁻⁶ g/ml): 96.3%; Inhibition (%) of foot edema (male ddY mice; dose 0.1 mg/kg intravenously): 12%; Inhibition (%) of foot edema (male ddY mice; dose 10 mg/kg intravenously): 42%"
"Cc1nc(-c2ccccc2)cc(-c2cccc([N+](=O)[O-])c2)c1NC(=O)NCCN(C)C [(g), 3-[3-(2-Dimethylaminoethyl)ureido]-2-methyl-4-(3-nitrophenyl)-6-phenylpyridine]",-42.7,-85.7,78.6,–,–
"Cc1nc(-c2ccccc2)cc(-c2cccc([N+](=O)[O-])c2)c1C(=O)NCCN(C)C [(e), 3-(2-Dimethylaminoethylcarbamoyl)-2-methyl-4-(3-nitrophenyl)-6-phenylpyridine]",-10.2,-90.6,76.3,–,–
"Cc1nc(-c2ccccc2)cc(-c2cccc([N+](=O)[O-])c2)c1C(=O)N1CCN(C)CC1 [(d), 2-Methyl-3-(4-methylpiperazin-1-ylcarbonyl)-4-(3-nitrophenyl)-6-phenylpyridine]",5.0,-29.7,123.6,41.5,–
"Cc1nc(-c2ccccc2)cc(-c2cccc([N+](=O)[O-])c2)c1C(=O)NCCN1CCSCC1.O=C(O)/C=C/C(=O)O [(f), 2-Methyl-4-(3-nitrophenyl)-6-phenyl-3-[2-(4-thiomorpholinyl)ethylcarbamoyl]pyridine fumarate]",22.5,-45.2,64.9,22,–
